In brackets after ≈: the same amount, converted by molar mass.
Key:
[1] = system: vancomycin-resistant Enterococci (VRE); test: Anti-VRE assay, standard broth microdilution method in 96-well plates; format: cell-based; details: Enterococcus, ampicillin positive control, tests performed three times, read-out: MIC against vancomycin-resistant Enterococci (VRE)
Protocol: As described in earlier studies, the antibacterial activities against vancomycin-resistant Enterococci (VRE) were achieved by a standard broth microdilution method in 96-well plates. Ampicillin (AMP) was a positive control, and all tests were performed three times.

[2] = target: T1, human acetylcholinesterase (hAChE) (Homo sapiens, UniProt P22303); test: biochemical; details: triplicate; galantamine positive control; IC50 exceeding 40 μM considered inactive; read-out: hAChE inhibitory activity IC50 ± SD
T1 sequence (P22303 32-614): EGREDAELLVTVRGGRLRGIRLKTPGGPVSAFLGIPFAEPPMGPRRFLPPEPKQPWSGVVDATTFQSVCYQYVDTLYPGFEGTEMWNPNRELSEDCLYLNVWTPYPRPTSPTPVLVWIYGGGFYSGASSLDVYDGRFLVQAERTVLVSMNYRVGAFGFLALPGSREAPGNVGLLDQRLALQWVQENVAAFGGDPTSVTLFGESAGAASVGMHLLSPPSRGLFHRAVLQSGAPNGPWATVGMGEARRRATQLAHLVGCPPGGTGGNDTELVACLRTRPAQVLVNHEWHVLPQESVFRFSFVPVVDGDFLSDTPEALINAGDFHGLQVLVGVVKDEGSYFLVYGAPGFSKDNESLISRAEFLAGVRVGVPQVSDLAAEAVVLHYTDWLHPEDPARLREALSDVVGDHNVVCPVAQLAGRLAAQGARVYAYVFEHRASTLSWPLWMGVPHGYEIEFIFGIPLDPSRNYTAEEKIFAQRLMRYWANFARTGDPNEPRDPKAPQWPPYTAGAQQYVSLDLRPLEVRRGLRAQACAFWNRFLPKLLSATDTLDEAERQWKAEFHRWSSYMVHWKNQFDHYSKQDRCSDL
Protocol: hAChE inhibition assays were performed according to a reported protocol, with galantamine as the positive control. All assays were performed in triplicate.

[3] = target: T1, human acetylcholinesterase (hAChE); set-up: method as in PMID 36007662; details: earlier report; cited from earlier work

## CC1(C)S[C@@H]2[C@H](NC(=O)[C@H](N)c3ccccc3)C(=O)N2[C@H]1C(=O)O [ampicillin, reference compound]
[1]
  MIC: 2 µg/mL (≈ 5.72 µM)

## CC(C)C[C@H]1C2=C(O[C@]3(C)[C@H]1C[C@]1(C(C)C)C[C@@H]13)C(C)(C)C(=O)C(C)(C)C2=O [phloroglucinol 1, rhodotomentodione F]
[2]
  IC50: > 40000 nM

## CC1(C)C(=O)C2=C(OC3(O)C(=C2)C(=O)C(C)(C)C(=O)C3(C)C)C(C)(C)C1=O (stereo not shown) [phloroglucinol 2, rhodotomentodimer H]
[2]
  IC50: > 40000 nM

## CCC(C)C1C2=C(Oc3c(C(=O)C(C)C)c(O)cc(O)c31)C(C)(C)C(=O)C(C)(C)C2=O (stereo not shown) [phloroglucinol 3, rhodotomentodimer I]
[2]
  IC50: 2890 ± 300 nM

## CCC(C)C(=O)c1c(O)cc(O)c2c1OC1=C(C(=O)C(C)(C)C(=O)C1(C)C)C2C(C)C (stereo not shown) [phloroglucinol 4, rhodotomentodimer J]
[2]
  IC50: 2390 ± 250 nM

## CCC(C)C(=O)c1c(O)cc(O)c2c1OC1=C(C(=O)C(C)(C)C(=O)C1(C)C)C2C(C)C (stereo not shown) [phloroglucinol 5, rhodotomentodimer K]
[2]
  IC50: 2460 ± 330 nM

## CCC(C)C(=O)c1c(O)cc(O)c2c1OC1=C(C(=O)C(C)(C)C(=O)C1(C)C)C2C(C)CC (stereo not shown) [phloroglucinol 6, rhodotomentodimer L]
[2]
  IC50: 2620 ± 210 nM

## CCC(C)C(=O)c1c(O)cc(O)c2c1OC1=C(C(=O)C(C)(C)C(=O)C1(C)C)C2C(C)CC (stereo not shown) [phloroglucinol 7, rhodotomentodimer M]
[2]
  IC50: 2410 ± 220 nM

## CCC(C)C(=O)c1c(O)cc2c(c1O)C(C(C)CC)C1=C(O2)C(C)(C)C(=O)C(C)(C)C1=O (stereo not shown) [phloroglucinol 8, rhodotomentodimer N]
[2]
  IC50: 3350 ± 410 nM

## CCC(C)C(=O)c1c(O)cc2c(c1O)C(C(C)C)C1=C(O2)C(C)(C)C(=O)C(C)(C)C1=O (stereo not shown) [phloroglucinol 9, myrciarone B]
[2]
  IC50: 2860 ± 300 nM

## CCC(C)C(=O)c1c(O)cc2c(c1O)C(CC(C)C)C1=C(O2)C(C)(C)C(=O)C(C)(C)C1=O (stereo not shown) [phloroglucinol 10, rhodotomentodimer D]
[3]
  inhibitory activity against human acetylcholinesterase (hAChE), in words: exhibited inhibitory activity

## CC(C)C(=O)c1c(O)cc2c(c1O)C(C(C)C)C1=C(O2)C(C)(C)C(=O)C(C)(C)C1=O (stereo not shown) [phloroglucinol 11, isomyrtucommulone B]
[2]
  IC50: 1360 ± 160 nM
[1]
  MIC: 1 µg/mL (≈ 2.41 µM)

## CC(C)CC(=O)c1c(O)cc2c(c1O)C(CC(C)C)C1=C(O2)C(C)(C)C(=O)C(C)(C)C1=O (stereo not shown) [phloroglucinol 12, rhodomyrtone]
[2]
  IC50: 1520 ± 140 nM
[1]
  MIC: 1 µg/mL (≈ 2.26 µM)

## CC(C)C(=O)c1c(O)cc(O)c2c1OC1=C(C(=O)C(C)(C)C(=O)C1(C)C)C2C(C)C (stereo not shown) [phloroglucinol 13, myrtucommulone B]
[2]
  IC50: 1040 ± 30 nM
[1]
  MIC: > 32 µg/mL

## CC(C)CC(=O)c1c(O)cc(O)c2c1OC1=C(C(=O)C(C)(C)C(=O)C1(C)C)C2C(C)C (stereo not shown) [phloroglucinol 14, callistenone A]
[2]
  IC50: 1230 ± 110 nM
[1]
  MIC: > 32 µg/mL
